Holding throughout (experiment): microbe, parasite or virus in culture
Holding throughout (type): cell-based

The subject of assay [1] is VEEV TC83. The note with it: Venezuelan equine encephalitis virus, Vero 76, 48 h, read-out: VEEV TC83 EC50 nM.
Assay [2] concerns WEEV California. The following applies: Western equine encephalitis virus, Vero 76, 48 h, read-out: WEEV California EC50 nM.
For assay [3], the system named is EEEV FL93-939. The note with it: Eastern equine encephalitis virus, Vero 76, 48 h, read-out: EEEV FL93-939 EC50.
For assay [4], the system named is EEEV BeAr 436087. The following applies: Eastern equine encephalitis virus, Vero 76, 48 h, read-out: EEEV BeAr 436087 EC50 nM.

As for `COc1ccc(-n2c([C@H]3CCCN3)nc3c(-c4ccc(F)nc4)cc([N+](=O)[O-])cc3c2=O)cc1F` [Example 89, (R)-3-(3-fluoro-4-methoxyphenyl)-8-(6-fluoropyridin-3-yl)-6-nitro-2-(pyrrolidin-2-yl) quinazolin-4 (3H)-one], the EC50 in assay [1] was 1 to 50 nM; in assay [2], 1 to 50 nM; in assay [3] it was 51 to 150 nM; in assay [4], 51 to 150 nM.
As for `COc1ccc(-n2c([C@H]3CCCN3C)nc3c(C)cc([N+](=O)[O-])cc3c2=O)cc1` [Example 57, (R)-3-(4-methoxyphenyl)-8-methyl-2-(1-methylpyrrolidin-2-yl)-6-nitroquinazolin-4 (3H)-one], the EC50 in assay [1] lay within 51 to 150 nM; in assay [2], 151 to 500 nM; in assay [3], 51 to 150 nM; in assay [4], 51 to 150 nM.
`COc1ccc(-n2c([C@H]3CCCN3)nc3c(-c4ccc(C(F)(F)F)nc4)cc(C#N)cc3c2=O)cc1F` [Example 100, (R)-3-(3-fluoro-4-methoxyphenyl)-4-oxo-2-(pyrrolidin-2-yl)-8-(6-(trifluoromethyl)pyridin-3-yl)-3,4-dihydroquinazoline-6-carbonitrile]: the EC50 in assay [1] was in the range of 1 to 50 nM; in assay [2] it was 1 to 50 nM; in assay [3], 51 to 150 nM; in assay [4], 51 to 150 nM.
Turning to `COc1ccc(-n2c([C@H]3CCCN3)nc3c(-c4cccnc4)cc(C#N)cc3c2=O)cc1F` [Example 107, (R)-3-(3-fluoro-4-methoxyphenyl)-4-oxo-8-(pyridin-3-yl)-2-(pyrrolidin-2-yl)-3,4-dihydroquinazoline-6-carbonitrile], the EC50 in assay [1] fell in the range of 1 to 50 nM; in assay [2], 1 to 50 nM; in assay [3] it was 51 to 150 nM; in assay [4] it was 1 to 50 nM.
As for `COc1ccc(-n2c([C@H]3CCCN3C)nc3ccc([N+](=O)[O-])cc3c2=O)cc1` [Example 10, (R)-3-(4-methoxyphenyl)-2-(1-methylpyrrolidin-2-yl)-6-nitroquinazolin-4 (3H)-one], the EC50 lay within 1 to 50 nM in assay [1], 151 to 500 nM in assay [2], 151 to 500 nM in assay [3] and 51 to 150 nM in assay [4].
In the case of `COc1ccc(-n2c(C3CCCN3)nc3c(-c4ccc(C)nc4)cc(C#N)cc3c2=O)cc1F` (stereo not drawn) [Example 101, 3-(3-fluoro-4-methoxyphenyl)-8-(6-methylpyridin-3-yl)-4-oxo-2-(pyrrolidin-2-yl)-3,4-dihydroquinazoline-6-carbonitrile], the EC50 in assay [1] lay within 1 to 50 nM; in assay [2], 1 to 50 nM; in assay [3], 51 to 150 nM; in assay [4], 51 to 150 nM.
For `COc1ccc(-n2c([C@H]3CCNC3)nc3ccc([N+](=O)[O-])cc3c2=O)cc1` [Example 18, (S)-3-(4-methoxyphenyl)-6-nitro-2-(pyrrolidin-3-yl) quinazolin-4 (3H)-one], the EC50 in assay [1] was 1 to 50 nM; in assay [2] it was 151 to 500 nM; in assay [3] it was 151 to 500 nM; in assay [4] it was 51 to 150 nM.
Regarding `COc1cc(F)ccc1-n1c([C@H]2CCCN2)nc2ccc([N+](=O)[O-])cc2c1=O` [Example 26, (R)-3-(2-methoxy-4-fluorophenyl)-6-nitro-2-(pyrrolidin-2-yl) quinazolin-4 (3H)-one], the EC50 in assay [1] and in assay [2] was above 1000 nM in each case.
As for `COc1ccc(-n2c([C@H]3CCCN3)nc3ccc([N+](=O)[O-])cc3c2=O)cc1` [Example 9, (R)-3-(4-methoxyphenyl)-6-nitro-2-(pyrrolidin-2-yl) quinazolin-4 (3H)-one], the concentration giving a half-maximal response (EC50) in assay [1] and in assay [2] was 1 to 50 nM in each case.
For the compound `C=C(C)c1ccc(-c2cc(C#N)cc3c(=O)n(-c4cc(F)c(OC)c(F)c4)c(C4CCCN4)nc23)cc1` (stereo not drawn) [Example 172, 3-(3,5-difluoro-4-methoxyphenyl)-4-oxo-8-(4-(prop-1-en-2-yl)phenyl)-2-(pyrrolidin-2-yl)-3,4-dihydroquinazoline-6-carbonitrile], the EC50 in assay [1] and in assay [2] was 51 to 150 nM each time.
Turning to `COc1ccc(-n2c([C@@H]3CCCN3)nc3c(-c4ccncc4)cc(C#N)cc3c2=O)cc1F` [Example 110, (S)-3-(3-fluoro-4-methoxyphenyl)-4-oxo-8-(pyridin-4-yl)-2-(pyrrolidin-2-yl)-3,4-dihydroquinazoline-6-carbonitrile], the EC50 in assay [1] and in assay [2] was 1 to 50 nM in each case.
Consider `COc1ccc(-n2c(C3CC4CCC3N4)nc3c(-c4ccc(C)nc4)cc(C#N)cc3c2=O)cc1F` (stereo not drawn) [Example 143, 2-(7-azabicyclo[2.2.1]heptan-2-yl)-3-(3-fluoro-4-methoxyphenyl)-8-(6-methylpyridin-3-yl)-4-oxo-3,4-dihydroquinazoline-6-carbonitrile], for which the EC50 in assay [1] fell in the range of 51 to 150 nM; in assay [2] it was 151 to 500 nM.
For `COc1ccc(-n2c(C3CCCN3)nc3c(CCc4ccc(C)nc4)cc(C#N)cc3c2=O)cc1F` (stereo not drawn) [Example 195, 3-(3-Fluoro-4-methoxyphenyl)-8-(2-(6-methylpyridin-3-yl)ethyl)-4-oxo-2-(pyrrolidin-2-yl)-3,4-dihydroquinazoline-6-carbonitrile] the same measures were 51 to 150 nM and 51 to 150 nM.
As for `O=c1c2cc([N+](=O)[O-])ccc2nc(C2CCCN2)n1-c1ccccc1F` (stereo not drawn) [Example 41, 3-(2-fluorophenyl)-6-nitro-2-(pyrrolidin-2-yl)quinazolin-4 (3H)-one], the EC50 in assay [1] was 501 to 1000 nM; in assay [2], above 1000 nM.
On to `COc1ccc(-n2c([C@@H]3CCCN3)nc3c(C(F)(F)F)cc(C#N)cc3c2=O)cc1F` [Example 77, (S)-3-(3-fluoro-4-methoxyphenyl)-4-oxo-2-(pyrrolidin-2-yl)-8-(trifluoromethyl)-3,4-dihydroquinazoline-6-carbonitrile], for which the EC50 fell in the range of 51 to 150 nM in assay [1] and 1 to 50 nM in assay [2].
For `COc1ccc(-n2c(C3CCCN3)nc3c(-c4ccc(C(C)=O)nc4)cc(C#N)cc3c2=O)cc1F` (stereo not drawn) [Example 129, 8-(6-acetylpyridin-3-yl)-3-(3-fluoro-4-methoxyphenyl)-4-oxo-2-(pyrrolidin-2-yl)-3,4-dihydroquinazoline-6-carbonitrile] the same measures were 1 to 50 nM and 1 to 50 nM.
For `COc1ccc(-n2c([C@H]3CCCN3)nc3c(C)cc(C#N)cc3c2=O)cc1` [Example 50, (R)-3-(4-methoxyphenyl)-8-methyl-4-oxo-2-(pyrrolidin-2-yl)-3,4-dihydroquinazoline-6-carbonitrile], the EC50 in assay [1] and in assay [2] was 1 to 50 nM in each case.
For the compound `COc1c(F)cc(-n2c(C3C[C@H](F)CN3)nc3c(-c4cc(C)nc(C)c4)cc(C#N)cc3c2=O)cc1F` (stereo partly drawn) [Example 160, 3-(3,5-Difluoro-4-methoxyphenyl)-8-(2,6-dimethylpyridin-4-yl)-2-((4S)-4-fluoropyrrolidin-2-yl)-4-oxo-3,4-dihydroquinazoline-6-carbonitrile], the concentration for a half-maximal effect (EC50) in assay [1] and in assay [2] was 51 to 150 nM throughout.
On to `CN[C@H](C)c1nc2ccc([N+](=O)[O-])cc2c(=O)n1-c1ccc(OC)cc1` [Example 207, (R)-3-(4-methoxyphenyl)-2-(1-(methylamino)ethyl)-6-nitroquinazolin-4 (3H)-one], for which the 50% effective concentration (EC50) in assay [1] fell in the range of 51 to 150 nM; in assay [2] it was 151 to 500 nM.
Consider `COc1ccc(-n2c([C@H]3CCCN3)nc3c(-c4ccnc(F)c4)cc(C#N)cc3c2=O)cc1F` [Example 104, (R)-3-(3-fluoro-4-methoxyphenyl)-8-(2-fluoropyridin-4-yl)-4-oxo-2-(pyrrolidin-2-yl)-3,4-dihydroquinazoline-6-carbonitrile], for which the EC50 in assay [1] and in assay [2] was 1 to 50 nM throughout.
Regarding `COc1c(F)cc(-n2c([C@H]3CCCN3)nc3c(-c4ccc(C)nc4)cc(C#N)cc3c2=O)cc1F` [Example 119, (R)-3-(3,5-difluoro-4-methoxyphenyl)-8-(6-methylpyridin-3-yl)-4-oxo-2-(pyrrolidin-2-yl)-3,4-dihydroquinazoline-6-carbonitrile], the EC50 in assay [1] and in assay [2] was 1 to 50 nM throughout.
Take `CN[C@@H](C)c1nc2ccc([N+](=O)[O-])cc2c(=O)n1-c1ccc(OC)cc1` [Example 206, (S)-3-(4-methoxyphenyl)-2-(1-(methylamino)ethyl)-6-nitroquinazolin-4 (3H)-one]: the concentration giving a half-maximal response (EC50) fell in the range of 51 to 150 nM in assay [1] and 151 to 500 nM in assay [2].
In the same order, the values of `COc1c(F)cc(-n2c(C3CCCN3)nc3c(-c4ccc(C(C)(C)O)cc4)cc(C#N)cc3c2=O)cc1F` (stereo not drawn) [Example 171, 3-(3,5-difluoro-4-methoxyphenyl)-8-(4-(2-hydroxypropan-2-yl)phenyl)-4-oxo-2-(pyrrolidin-2-yl)-3,4-dihydroquinazoline-6-carbonitrile] are 51 to 150 nM and 51 to 150 nM.
For `Cc1cc(-c2cc(C#N)cc3c(=O)n(-c4cc(F)c(NCC5(CO)COC5)c(F)c4)c(C4CCCN4)nc23)cc(C)n1` (stereo not drawn) [Example 164, 3-(3,5-difluoro-4-(((3-(hydroxymethyl)oxetan-3-yl)methyl)amino)phenyl)-8-(2,6-dimethylpyridin-4-yl)-4-oxo-2-(pyrrolidin-2-yl)-3,4-dihydroquinazoline-6-carbonitrile], the EC50 in assay [1] and in assay [2] was 501 to 1000 nM each time.
For the compound `COc1ccc(-n2c([C@@H]3C[C@@H](F)CN3)nc3c(C)cc([N+](=O)[O-])cc3c2=O)cc1F` [Example 64, 2-((2S,4R)-4-fluoropyrrolidin-2-yl)-3-(3-fluoro-4-methoxyphenyl)-8-methyl-6-nitroquin-azolin-4 (3H)-one], the EC50 in assay [1] and in assay [2] was above 1000 nM in each case.
With `O=c1c2cc([N+](=O)[O-])ccc2nc([C@H]2CCCN2C2CCOCC2)n1-c1ccccc1` [Example 3, (R)-6-nitro-3-phenyl-2-(1-(tetrahydro-2H-pyran-4-yl)pyrrolidin-2-yl) quinazolin-4 (3H)-one], the figures for the EC50 in assay [1] and in assay [2] were 501 to 1000 nM and above 1000 nM, respectively.

For orientation: EC50 means the concentration that produces a half-maximal response.

The record behind these values is patent US20220348558A1, “INHIBITORS OF ENCEPHALITIC ALPHAVIRUSES” (priority 2019, published 2022).
